Reference: article PMC8167934 (Cancer letters, 2021)

How the values were obtained:
[1] = tested on: TNBC patients; conditions: high dose omeprazole added to neoadjuvant TNBC treatment; cited from earlier work
[2] = tested on: breast cancer patients; assay: Retrospective EMR analysis of overall survival of breast cancer patients; format: in vivo, human
[3] = tested on: db/+ and db/db mice; conditions: chronic use, cited from earlier work
[4] = target: thioesterase (TE) domain of FASN (Homo sapiens, UniProt P49327); assay: TE activity assay with recombinant TE; conditions: recombinant TE 500 nM
[5] = tested on: NHEJ activity in MCF7 cells; assay: Host cell reactivation assay of NHEJ activity, MCF7; format: cell-based, human
[6] = tested on: MCF7/FASN cells; assay: Colony formation assay, MCF7 cells with ectopic FASN over-expression; format: cell-based, human; conditions: ectopic FASN over-expression vs MCF7/Vec
[7] = tested on: PARP1 expression; assay: Western blot analysis of PARP1 expression; format: cell-based, human; conditions: MCF7, T47D, MDA-MB-231 and MDA-MB-468 cells, different concentrations
[8] = tested on: γ-H2AX in MCF7 cells; assay: γ-H2AX level; format: cell-based, human
[9] = tested on: NHEJ activity in MDA-MB-468 cells; assay: Host cell reactivation assay of NHEJ activity, MDA-MB-468; format: cell-based, human; conditions: 10 µM twice a day for three days
[10] = tested on: MDA-MB-468 cells; assay: Flow cytometry of apoptosis and cell cycle, MDA-MB-468; format: cell-based, human
[11] = tested on: MDA-MB-468 cells; assay: Colony formation combination study with doxorubicin; format: cell-based, human; conditions: combination with doxorubicin at potency ratios 50/50, 25/75, 75/25
[12] = tested on: MDA-MB-468 cells; assay: Colony formation combination with ionizing radiation, MDA-MB-468; format: cell-based, human; conditions: pre-treated with 10 µM once a day for 3 days
[13] = tested on: M3K/Sh cells; assay: Colony formation assay, MCF7/AdVp3000 cells with FASN knockdown; format: cell-based, human; conditions: FASN knockdown vs M3K/Scr
[14] = tested on: MCF7 cells; assay: Flow cytometry of apoptosis and cell cycle, MCF7; format: cell-based, human
[15] = tested on: MCF7 cells; assay: Colony formation combination study with doxorubicin; format: cell-based, human; conditions: combination with doxorubicin at potency ratios 50/50, 25/75, 75/25
[16] = tested on: γ-H2AX in MDA-MB-468 cells; assay: γ-H2AX level; format: cell-based, human
[17] = tested on: MCF7 cells; assay: Colony formation combination with ionizing radiation, MCF7; format: cell-based, human; conditions: pre-treated with 10 µM once a day for 3 days
[18] = tested on: homologous recombination activity; assay: Host cell reactivation assay of homologous recombination activity; format: cell-based, human; conditions: 10 µM twice a day for three days
[19] = 10–20 mg users vs non-PPI users
[20] = users of the PPI vs non-PPI users
[21] = esomeprazole users vs omeprazole users, pairwise comparison

thioesterase (TE) domain of FASN, sequence (P49327 2207-2511 limits assumed): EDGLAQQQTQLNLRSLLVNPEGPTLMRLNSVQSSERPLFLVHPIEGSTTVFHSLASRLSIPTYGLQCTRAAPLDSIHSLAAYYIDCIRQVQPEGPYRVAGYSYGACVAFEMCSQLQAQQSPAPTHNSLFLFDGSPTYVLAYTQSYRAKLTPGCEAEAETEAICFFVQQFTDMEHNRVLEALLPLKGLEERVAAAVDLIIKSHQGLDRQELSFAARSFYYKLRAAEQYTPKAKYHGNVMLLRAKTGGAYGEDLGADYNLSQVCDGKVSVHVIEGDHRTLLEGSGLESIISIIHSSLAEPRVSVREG

SMILES: COc1ccc2[nH]c([S+]([O-])Cc3ncc(C)c(OC)c3C)nc2c1 (centres unmarked) [omeprazole]
- FASN activities in tumors [1]: inhibited
- Toxicity [1]: without adding toxicity
- pCR rate [1]: ~ 74%
- Overall survival, multivariant HR ([2]; 40 mg users vs non-PPI users): 0.12
- Overall survival, univariant HR ([2]; 40 mg users vs non-PPI users): 0.21
- Overall survival, multivariant HR [2, 19]: 0.28
- Overall survival, univariant HR [2, 19]: 0.33
- Overall survival, univariate HR [2, 20]: 0.33

SMILES: CC12C[C@@]34C=CC(=O)[C@@](C)(CCC(=O)Nc5c(O)ccc(C(=O)O)c5O)C3[C@H](CC1C4)O2 (some centres unmarked) [platensimycin]
- Insulin sensitivity ([3]; db/+ mice fed with high-fructose diet): improved insulin sensitivity
- Ambient glucose levels ([3]; db/db mice): reduced ambient glucose levels

SMILES: Cc1c(OCC(F)(F)F)ccnc1C[S@@+]([O-])c1nc2ccccc2[nH]1 [R-lansoprazole, dexlansoprazole]
- Inhibition of TE activity of FASN (Ki), enantiomer comparison [4]: significantly more effective than the S-lansoprazole

SMILES: COc1ccc2nc([S@@+]([O-])Cc3ncc(C)c(OC)c3C)[nH]c2c1 [esomeprazole]
- Overall survival, multivariant HR ([2]; 20 mg users vs non-PPI users): 0.73
- Overall survival, univariant HR ([2]; 20 mg users vs non-PPI users): 1.0
- Overall survival, multivariant HR ([2]; 40 mg users vs non-PPI users): 0.33
- Overall survival, univariant HR ([2]; 40 mg users vs non-PPI users): 0.3
- Overall survival, multivariate HR [2, 21]: 1.64
- Overall survival, univariate HR [2, 21]: 1.62
- Overall survival, univariate HR [2, 20]: 0.52

SMILES: COc1ccnc(C[S+]([O-])c2nc3ccc(OC(F)F)cc3[nH]2)c1OC (centres unmarked) [pantoprazole]
- Overall survival, univariate HR [2, 20]: 0.43

SMILES: Cc1c(OCC(F)(F)F)ccnc1C[S+]([O-])c1nc2ccccc2[nH]1 (centres unmarked) [lansoprazole]
- NHEJ activity ([5]; MCF7, 10 µM twice a day for three days): significantly reduced
- NHEJ activity with ectopic FASN over-expression ([5]; MCF7 cells over-expressing ectopic FASN): rescued NHEJ activity
- Lansoprazole resistance (relative resistance factor) [6]: increased
- PARP1 expression [7]: dose-dependently reduced
- γ-H2AX level ([8]; MCF7, lansoprazole alone): increased γ-H2AX level in a dose-dependent manner
- γ-H2AX level at 4 hrs post-IR versus 1 hr ([8]; MCF7, lansoprazole pre-treatment, 5 Gy IR): no reduction
- Doxorubicin-induced γ-H2AX production ([8]; MCF7, lansoprazole with doxorubicin): synergistically increased
- Lansoprazole-induced γ-H2AX increase with ectopic FASN over-expression ([8]; over-expressing ectopic FASN): ablated
- NHEJ activity [9]: significantly reduced
- Apoptosis ([10]; MDA-MB-468): dose-dependently induced apoptosis
- Cell cycle arrest phase ([10]; MDA-MB-468, dose-dependent): S phase
- Combination index [11]: < 1.0
- Sensitization to IR treatment [12]: sensitized
- Lansoprazole resistance (relative resistance factor) [13]: reduced
- Apoptosis [14]: dose-dependently induced apoptosis
- Combination index [15]: < 1.0
- γ-H2AX level ([16]; MDA-MB-468, lansoprazole alone): increased γ-H2AX level in a dose-dependent manner
- γ-H2AX level at 4 hrs post-IR versus 1 hr ([16]; MDA-MB-468, lansoprazole pre-treatment, 5 Gy IR): no reduction
- Doxorubicin-induced γ-H2AX production ([16]; MDA-MB-468, lansoprazole with doxorubicin): synergistically increased
- Overall survival, univariate HR [2, 20]: 0.20
- Sensitization to IR treatment [17]: sensitized
- Homologous recombination activity [18]: did not change
